Key:
Test in all cases: CTG-3D luminescence at 96 h relative to day-0 seeding control (ratio to day 0); higher = more growth / less cytotoxicity; PDxO 3D drug screen, 96 h, CTG-3D normalised to day-0 seeding control.
HCI-025 = test system: HCI-025 (organoid from a breast cancer xenograft)
HCI-027 = test system: HCI-027 (organoid from a triple-negative breast cancer xenograft)
HCI-003.E2 = test system: HCI-003.E2 (organoid from an ER-positive breast cancer xenograft)
HCI-016 = test system: HCI-016 (organoid from a triple-negative breast cancer xenograft)
HCI-024 = test system: HCI-024 (organoid from a breast cancer xenograft)

CC[C@H](NC(=O)[C@H](C)NC)C(=O)N1C[C@@H](O)C[C@H]1Cc1c(-c2[nH]c3cc(F)ccc3c2C[C@@H]2C[C@H](O)CN2C(=O)[C@H](CC)NC(=O)[C@H](C)NC)[nH]c2cc(F)ccc12 [birinapant]
CTG-3D luminescence at 96 h
Details	12.5 pM	0.00025 µM	0.005 µM	0.1 µM	1 µM	10 µM	100 µM	625 fM
HCI-016, days in culture: 153	2.99	2.23	2.64	2.39	2.94	2.86	0.41	2.37
HCI-016, days in culture: 172	2.25	1.67	1.82	1.23	1.56	1.24	0.122	1.58
HCI-016, days in culture: 190	1.66	1.27	1.52	1.09	1.38	1.36	0.309	0.99
HCI-016, days in culture: 199	1.54	1.36	1.44	1.52	1.54	1.23	0.204	1.7
HCI-024, days in culture: 105	1.4	1.17	0.375	0.175	0.139	0.177	0.0272	1.84
HCI-024, days in culture: 122	1.7	1.71	0.726	0.194	0.134	0.237	0.0303	2.58
HCI-024, days in culture: 163	1.8	1.36	0.525	0.315	0.255	0.23	0.0734	2.09
HCI-025, days in culture: 172	2.24	1.37	1.16	0.15	0.319	0.166	0.0157	1.82
HCI-025, days in culture: 209	1.87	1.95	1.01	0.628	0.388	0.374	0.241	1.9
HCI-025, days in culture: 218	1.84	1.78	1.79	1.23	0.859	0.811	0.542	1.83
HCI-027, days in culture: 176	1.24	1.19	1.69	1.22	1.62	1.08	0.00679	1.18
HCI-027, days in culture: 194	1.58	1.02	0.983	0.99	1.14	1.31	0.129	1.53
HCI-027, days in culture: 201	1.64	1.19	1.14	0.985	0.933	1.13	0.11	1.76

HCI-003.E2
Details	CTG-3D luminescence at 96 h
12.5 pM	2.21
0.00025 µM	2.35
0.005 µM	2.12
0.1 µM	2.07
1 µM	1.98
10 µM	2.07
100 µM	1.08
625 fM	2.08

NC(=O)Nc1cc(-c2cccc(F)c2)sc1C(=O)N[C@H]1CCCNC1 [AZD7762]
CTG-3D luminescence at 96 h
Details	12.5 pM	0.00025 µM	0.005 µM	0.1 µM	1 µM	10 µM	100 µM	625 fM
HCI-016, days in culture: 153	3.14	1.64	2.54	0.266	0.0727	0.081	0.000259	2.62
HCI-016, days in culture: 172	2.35	1.91	1.78	0.194	0.0623	0.0531	-3.08e-05	1.66
HCI-016, days in culture: 190	1.53	1.19	1.71	0.131	0.0574	0.0481	0.00171	1.32
HCI-016, days in culture: 199	1.5	1.46	1.56	0.129	0.0407	0.0245	-0.00099	1.57
HCI-024, days in culture: 105	1.28	1.48	1.42	0.635	0.236	0.228	0.00249	1.9
HCI-024, days in culture: 122	1.65	2.38	1.93	0.853	0.308	0.273	0.00352	2.89
HCI-024, days in culture: 163	1.95	1.96	2.02	1.27	0.309	0.267	0.00535	2.34
HCI-025, days in culture: 172	3.17	1.83	2.73	0.677	0.305	0.0747	-0.00404	2.61
HCI-025, days in culture: 209	1.54	2.2	1.92	0.713	0.29	0.0922	-0.00311	1.39
HCI-025, days in culture: 218	1.78	1.97	2.04	1.33	0.198	0.105	-0.00375	1.77
HCI-027, days in culture: 176	1.95	1.34	2.55	0.208	0.0981	0.0356	-0.00164	2.05
HCI-027, days in culture: 194	1.41	1.22	1.34	0.159	0.0911	0.0685	-0.00154	1.61
HCI-027, days in culture: 201	1.43	2.16	2.35	0.166	0.0767	0.078	-1.51e-05	1.6

HCI-003.E2
Details	CTG-3D luminescence at 96 h
12.5 pM	2.21
0.00025 µM	2.59
0.005 µM	1.96
0.1 µM	1.78
1 µM	1.12
10 µM	0.769
100 µM	0.0016
625 fM	2.21

C=CC(=O)N1CCC[C@@H](n2nc(-c3ccc(Oc4ccccc4)cc3)c3c(N)ncnc32)C1 [ibrutinib]
CTG-3D luminescence at 96 h
Details	12.5 pM	0.00025 µM	0.005 µM	0.1 µM	1 µM	10 µM	100 µM	625 fM
HCI-016, days in culture: 153	3.08	1.69	2.64	2.11	2.69	1.59	-0.00474	2.85
HCI-016, days in culture: 172	1.97	1.45	2	1.61	1.46	1.04	-0.00481	1.49
HCI-016, days in culture: 190	1.59	1.26	1.45	1.11	0.915	0.881	-0.00814	1.37
HCI-016, days in culture: 199	1.58	1.62	1.43	1.26	1.35	1.21	-0.00558	1.72
HCI-024, days in culture: 105	1.56	1.54	1.35	1.46	1.32	1.61	-0.00218	1.84
HCI-024, days in culture: 122	2.18	2.8	2.14	1.49	1.64	1.91	-0.00165	3.5
HCI-024, days in culture: 163	1.47	2.09	2.1	2.44	1.92	1.75	0.00762	2.03
HCI-025, days in culture: 172	2.25	1.2	2.79	1.4	1.8	0.991	-0.0111	2.37
HCI-025, days in culture: 209	2.38	2.13	2.26	2.09	1.86	1.41	-0.0107	1.71
HCI-025, days in culture: 218	1.78	2.33	1.93	1.68	1.57	1.75	-0.00991	1.84
HCI-027, days in culture: 176	1.63	1.35	2.52	1.59	1.09	0.54	0.00595	1.73
HCI-027, days in culture: 194	1.68	1.52	1.52	1.6	1.98	1.69	0.00765	1.76
HCI-027, days in culture: 201	2.12	1.48	1.94	1.93	1.49	1.41	0.00768	2.11

HCI-003.E2
Details	CTG-3D luminescence at 96 h
12.5 pM	2.16
0.00025 µM	2.46
0.005 µM	2.1
0.1 µM	1.93
1 µM	1.86
10 µM	0.903
100 µM	-0.00322
625 fM	2.1

NC(=O)c1cccc2cn(-c3ccc([C@@H]4CCCNC4)cc3)nc12 [niraparib]
CTG-3D luminescence at 96 h
Details	12.5 pM	0.00025 µM	0.005 µM	0.1 µM	1 µM	10 µM	100 µM	625 fM
HCI-016, days in culture: 153	2.7	1.98	2.84	1.82	0.989	0.444	-0.00489	2.67
HCI-016, days in culture: 172	2.42	2.33	2.02	1.56	1.36	0.272	-0.00828	1.66
HCI-016, days in culture: 190	1.64	1.64	2.08	1.58	0.974	0.189	-0.105	1.59
HCI-016, days in culture: 199	2.02	2.05	1.96	1.54	0.655	0.118	-0.0141	2.02
HCI-024, days in culture: 105	1.48	1.61	1.14	1.43	1.44	1.27	0.00247	1.56
HCI-024, days in culture: 122	2.12	2.38	2.08	1.71	1.88	1.29	0.00108	2.15
HCI-024, days in culture: 163	1.73	1.86	1.82	2.37	1.78	1.17	0.00351	2.44
HCI-025, days in culture: 172	2.92	1.82	3.92	2.04	2.08	0.426	-0.311	2.26
HCI-025, days in culture: 209	1.9	2.67	2.31	1.69	1.9	0.545	-0.0263	1.59
HCI-025, days in culture: 218	1.38	1.94	1.97	1.83	1.03	0.271	-0.304	1.62
HCI-027, days in culture: 176	3.12	1.73	3.18	2.13	1.7	0.11	-0.239	3.68
HCI-027, days in culture: 194	2.35	1.82	2.05	2.39	1.88	0.735	-0.0845	2.19
HCI-027, days in culture: 201	3.32	3.11	3.01	2.94	1.55	0.457	-0.0215	2.7

HCI-003.E2
Details	CTG-3D luminescence at 96 h
12.5 pM	2.06
0.00025 µM	2.18
0.005 µM	1.93
0.1 µM	2.06
1 µM	1.81
10 µM	1.28
100 µM	-0.000881
625 fM	1.94

CCN1CCN(Cc2ccc(Nc3ncc(F)c(-c4cc(F)c5nc(C)n(C(C)C)c5c4)n3)nc2)CC1 [abemaciclib]
CTG-3D luminescence at 96 h
Details	12.5 pM	0.00025 µM	0.005 µM	0.1 µM	1 µM	10 µM	100 µM	625 fM
HCI-016, days in culture: 153	2.82	2.09	2.87	1.71	1.14	0.355	0.0128	2.64
HCI-016, days in culture: 172	2.12	1.72	1.43	1.67	1.25	0.322	0.0115	1.34
HCI-016, days in culture: 190	1.98	1.4	1.32	1.35	1.26	0.196	0.00813	1.43
HCI-016, days in culture: 199	1.89	1.75	2.03	1.74	1.21	0.0238	0.00916	1.85
HCI-024, days in culture: 105	1.51	1.33	1.28	1.48	1.25	0.994	0.0179	1.87
HCI-024, days in culture: 122	2.26	2.43	1.7	1.89	1.62	2.1	0.0233	3.21
HCI-024, days in culture: 163	1.45	2.01	1.71	2.45	1.94	1.38	0.0196	1.89
HCI-025, days in culture: 172	3.01	1.55	3.2	2.1	2.55	1.91	0.0181	2.18
HCI-025, days in culture: 209	2.03	1.8	1.98	2.2	2.46	1.27	0.0124	1.49
HCI-025, days in culture: 218	1.37	1.71	1.83	1.55	1.46	1.84	0.0142	1.33
HCI-027, days in culture: 176	2.08	1.51	2.54	2.32	1.53	0.242	0.0171	1.82
HCI-027, days in culture: 194	1.66	1.49	1.8	1.97	1.87	1.39	0.0205	1.89
HCI-027, days in culture: 201	2.8	2.7	2.69	2.54	2.15	1.35	0.018	2.37

HCI-003.E2
Details	CTG-3D luminescence at 96 h
12.5 pM	2.17
0.00025 µM	2.14
0.005 µM	2.02
0.1 µM	2.27
1 µM	1.98
10 µM	0.491
100 µM	0.00596
625 fM	1.87

From the supplement of paper PMC8882468
